One experiment deals with P388. The experiment is described as follows: Cytotoxicity against mouse P388 cells after 3 days. The settings on record: P388, 72 h, read-out: ED50 (the source's name).
The subject of a further experiment is A549. The experiment is described as follows: Cytotoxicity against human A549 cells after 6 days by MTT assay. Conditions: A549, 144 h, read-out: ED50 (the source's name). (Tetrazolium dyes change colour on reduction, which living cells bring about.)
The subject of the next experiment is KB. The experiment is described as follows: Cytotoxicity against human KB cells after 3 days by MTT assay. The settings on record: 72 h, read-out: ED50 (the source's name).
The subject of the next experiment is HT-29. The experiment is described as follows: Cytotoxicity against human HT-29 cells after 6 days by MTT assay. Conditions: HT-29, 144 h, read-out: ED50 (the source's name).

In brackets after ≈: the same amount, converted by molar mass. Bounds are passed on as bounds.

As to `C/C=C(\CC[C@@H](C)[C@H]1CC[C@H]2[C@@H]3CCC4=CC(=O)CC[C@]4(C)[C@H]3CC[C@]12C)C(C)C`, the EC50 in the experiment on P388, with A549, in the experiment on KB and with HT-29 was over 50 µg/mL each time.

As to `C=CC(CC[C@@H](C)[C@H]1CC[C@H]2[C@@H]3C[C@@H](O)C4=CC(=O)CC[C@]4(C)[C@H]3CC[C@]12C)(OO)C(C)C` (stereo not given in full), the EC50 amounted to 0.4 µg/mL (≈ 0.872 µM) in the experiment with P388, 1.8 µg/mL (≈ 3.92 µM) in the experiment with A549, 1.8 µg/mL (≈ 3.92 µM) in the experiment with KB and 1.7 µg/mL (≈ 3.71 µM) in the experiment with HT-29.

In the case of `C/C=C(\CC[C@@H](C)[C@H]1CC[C@H]2[C@@H]3CC(=O)C4=CC(=O)CC[C@]4(C)[C@H]3CC[C@]12C)C(C)C`, the EC50 with P388 turned out to be 0.6 µg/mL (≈ 1.41 µM); in the experiment on A549, 3.1 µg/mL (≈ 7.3 µM); in the experiment on KB it was 5.9 µg/mL (≈ 13.9 µM); in the experiment on HT-29, 0.4 µg/mL (≈ 0.942 µM).

Take `C/C=C(\CC[C@@H](C)[C@H]1CC[C@H]2[C@@H]3C[C@@H](O)C4=CC(=O)CC[C@]4(C)[C@H]3CC[C@]12C)C(C)C`: the EC50 in the experiment with P388 was 0.9 µg/mL (≈ 2.11 µM); in the experiment with A549, 2.3 µg/mL (≈ 5.39 µM); in the experiment with KB, 4.6 µg/mL (≈ 10.8 µM); in the experiment with HT-29, 1.2 µg/mL (≈ 2.81 µM).

For `C=CC(CC[C@@H](C)[C@H]1CC[C@H]2[C@@H]3CC(=O)C4=CC(=O)CC[C@]4(C)[C@H]3CC[C@]12C)(OO)C(C)C` (stereo not given in full), the EC50 was determined as 0.8 µg/mL (≈ 1.75 µM) in the experiment with P388, 2.5 µg/mL (≈ 5.47 µM) with A549, 4 µg/mL (≈ 8.76 µM) in the experiment with KB and 1.4 µg/mL (≈ 3.07 µM) with HT-29.
